{"source": "paper PMC4261083", "about": "“An atypical residue in the pore of Varroa destructor GABA-activated RDL receptors affects picrotoxin block and thymol modulation” (Insect Biochemistry and Molecular Biology, 2014)", "experiment_in_all_cases": "Picrotoxin inhibition of GABA responses, two electrode voltage clamp in Xenopus oocytes", "format_in_all_cases": "cell-based", "key": {"[1]": {"target": "T1, A20′S mutant Drosophila RDL receptor (Drosophila melanogaster, UniProt P25123, A319S)", "T1 construct": "expressed in transfected cells; host or cells: Xenopus laevis oocytes injected with cRNA", "T1 sequence (P25123 45-606 A319S)": "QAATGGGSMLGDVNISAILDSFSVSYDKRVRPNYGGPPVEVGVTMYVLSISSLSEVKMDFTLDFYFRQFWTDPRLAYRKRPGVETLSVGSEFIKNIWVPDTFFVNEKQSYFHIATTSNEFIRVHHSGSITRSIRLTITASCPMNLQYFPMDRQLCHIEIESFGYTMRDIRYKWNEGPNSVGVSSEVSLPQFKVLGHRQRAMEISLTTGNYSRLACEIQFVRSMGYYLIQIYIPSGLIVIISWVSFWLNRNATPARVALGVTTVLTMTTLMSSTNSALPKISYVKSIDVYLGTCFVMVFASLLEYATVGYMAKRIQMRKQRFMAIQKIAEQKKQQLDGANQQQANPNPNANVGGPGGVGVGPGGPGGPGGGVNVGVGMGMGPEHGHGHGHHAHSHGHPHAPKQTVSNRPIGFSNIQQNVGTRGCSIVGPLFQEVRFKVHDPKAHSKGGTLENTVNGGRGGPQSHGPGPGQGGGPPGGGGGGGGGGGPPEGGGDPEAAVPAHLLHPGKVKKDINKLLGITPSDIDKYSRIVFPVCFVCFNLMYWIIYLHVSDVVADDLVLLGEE", "description": "(§1) X. laevis oocyte-positive females were purchased from NASCO (Fort Atkinson, Wisconsin, USA) and maintained according to standard methods. Harvested stage V-VI Xenopus oocytes were washed in four changes of ND96 (96 mM NaCl, 2 mM KCl, 1 mM MgCl2, 1 mM CaCl2, 5 mM HEPES, pH 7.5), de-folliculated in 1.5 mg ml^−1 collagenase Type 1A for approximately 2 h, washed again in four changes of ND96 and stored in ND96 containing 2.5 mM sodium pyruvate, 0.7 mM theophylline and […].\n(§2) Drosophila RDL subunit cDNA (kindly gifted from N.Millar) was subcloned into pGEMHE for oocyte expression as previously described ([McGonigle and Lummis, 2010], [Millar et al., 1994]). Site directed mutagenesis was performed with the QuikChange mutagenesis kit (Agilent, La Jolla, CA). cRNA was transcribed in vitro from linearised pGEMHE cDNA template using the mMessage mMachine T7 Transcription kit (Ambion, Austin, Texas, USA). Stage V and VI oocytes were injected with 5 ng cRNA, incubated at 18 °C, and currents recorded 18–24 h post-injection.\n(§3) Xenopus oocytes were clamped at −60 mV using an OC-725 amplifier (Warner Instruments, Connecticut, USA), Digidata 1322A and the Strathclyde Electrophysiology Software Package (Department of Physiology and Pharmacology, University of Strathclyde, UK), or using the Roboocyte (MultiChannel Systems). Currents were recorded at 5 kHz and filtered at a frequency of 1 kHz. Micro-electrodes were fabricated from borosilicate glass (GC120TF-10, Harvard Apparatus, Edenbridge, Kent, UK) using a one stage horizontal pull (P-87, Sutter Instrument Company, California, USA) and filled with 3 M KCl. Pipette resistances ranged from 1.0 to 2.0 MΩ. Oocytes were perfused with ND96 at a constant rate of 12 ml min^−1. Drug application was via a simple gravity fed system calibrated to run at the same rate.\n(§4) Analysis and curve fitting was performed using Prism v5 (GraphPad Software, San Diego, California, USA). Concentration-response data for each oocyte was normalised to the maximum current for that oocyte. The mean and S.E.M. for a series of oocytes were fitted to the four parameter logistic equation in Prism."}, "[2]": {"target": "T2, wild type Drosophila RDL receptor (Drosophila melanogaster, UniProt P25123)", "T2 construct": "expressed in transfected cells; host or cells: Xenopus laevis oocytes injected with cRNA", "T2 sequence (P25123 45-606)": "T1 sequence (P25123 45-606 A319S) with S275A", "description": "as §1, §2, §3, §4"}, "[3]": {"target": "T3, T6′M mutant Drosophila RDL receptor (Drosophila melanogaster, UniProt P25123, T305M)", "T3 construct": "expressed in transfected cells; host or cells: Xenopus laevis oocytes injected with cRNA", "T3 sequence (P25123 45-606 T305M)": "T1 sequence (P25123 45-606 A319S) with T261M, S275A", "description": "as §1, §2, §3, §4"}}, "note": "Where a chain is given by its changes, count along the chain named.", "data": [{"substance": "picrotoxin", "values": [{"measurement": "IC50", "setting": "[1]", "value": 46, "unit": "nM"}, {"measurement": "Picrotoxin pIC50", "setting": "[1]", "value": "7.33 ± 0.13"}, {"measurement": "IC50", "setting": "[2]", "value": 180, "unit": "nM"}, {"measurement": "Picrotoxin pIC50", "setting": "[2]", "value": "6.75 ± 0.22"}, {"measurement": "Sensitivity to PTX", "setting": "[3]; PTX up to 100 μM", "value": "insensitive"}, {"measurement": "IC50", "setting": "[3]; inhibition of GABA responses, read-out: Picrotoxin pIC50 (converted)", "value": "> 100000", "unit": "nM"}]}]}
